Assay results: ChEMBL document CHEMBL1126461, “Biologically active heparin-like fragments with a non-glycosaminoglycan structure. Part 3 : o-alkylated-o-sulphated pentasaccharides” (Bioorg Med Chem Lett, 1992)

The compounds below were run against Coagulation factor X (Homo sapiens) (UniProt P00742) (assay: Compound was evaluated for the inhibition of anti-thrombin III (AT III)-mediated coagulation proteinase factor Xa).
Coagulation factor X (Homo sapiens), sequence (P00742 41-179 limits assumed): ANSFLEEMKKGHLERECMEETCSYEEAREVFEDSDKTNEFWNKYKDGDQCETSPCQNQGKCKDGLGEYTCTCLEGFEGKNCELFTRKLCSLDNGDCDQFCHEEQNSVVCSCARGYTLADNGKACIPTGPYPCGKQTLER
Coagulation factor X (Homo sapiens), sequence (P00742 235-488 limits assumed): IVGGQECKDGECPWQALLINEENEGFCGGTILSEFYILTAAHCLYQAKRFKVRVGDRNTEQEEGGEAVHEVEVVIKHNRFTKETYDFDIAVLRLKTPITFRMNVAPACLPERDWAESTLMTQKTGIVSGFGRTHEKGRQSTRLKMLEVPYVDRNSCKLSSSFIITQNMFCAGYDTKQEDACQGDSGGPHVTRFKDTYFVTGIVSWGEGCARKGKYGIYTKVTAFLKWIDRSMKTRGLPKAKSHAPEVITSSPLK

SMILES | Activity [U mg-1]
CCCCO[C@@H]1[C@@H](OS(=O)(=O)O)[C@H](O[C@H]2[C@H](OC)[C@@H](OC)[C@H](O[C@H]3[C@H](OS(=O)(=O)O)[C@@H](OS(=O)(=O)O)[C@H](O[C@H]4[C@H](OC)[C@@H](OS(=O)(=O)O)[C@H](O[C@H]5[C@H](OS(=O)(=O)O)[C@@H](OS(=O)(=O)O)[C@@H](OC)O[C@@H]5COS(=O)(=O)O)O[C@H]4C(=O)O)O[C@@H]3COS(=O)(=O)O)O[C@@H]2C(=O)O)O[C@H](COS(=O)(=O)O)[C@H]1OCCCC | 1500
CCCCCCCCO[C@@H]1[C@@H](OS(=O)(=O)O)[C@H](O[C@H]2[C@H](OS(=O)(=O)O)[C@@H](OS(=O)(=O)O)[C@@H](OC)O[C@@H]2COS(=O)(=O)O)O[C@@H](C(=O)O)[C@H]1O[C@@H]1O[C@H](COS(=O)(=O)O)[C@@H](O[C@@H]2O[C@H](C(=O)O)[C@@H](O[C@@H]3O[C@H](COS(=O)(=O)O)[C@@H](OC)[C@H](OC)[C@H]3OS(=O)(=O)O)[C@H](OCCCC)[C@H]2OCCCC)[C@H](OS(=O)(=O)O)[C@H]1OS(=O)(=O)O | 700
CCCCO[C@@H]1[C@@H](OCCCC)[C@H](O[C@H]2[C@H](OS(=O)(=O)O)[C@@H](OS(=O)(=O)O)[C@H](O[C@H]3[C@H](OC)[C@@H](OS(=O)(=O)O)[C@H](O[C@H]4[C@H](OS(=O)(=O)O)[C@@H](OS(=O)(=O)O)[C@@H](OC)O[C@@H]4COS(=O)(=O)O)O[C@H]3C(=O)O)O[C@@H]2COS(=O)(=O)O)O[C@H](C(=O)O)[C@H]1O[C@@H]1O[C@H](COS(=O)(=O)O)[C@@H](OC)[C@H](OC)[C@H]1OS(=O)(=O)O | 1100
CO[C@H]1O[C@H](COS(=O)(=O)O)[C@@H](O[C@@H]2O[C@@H](C(=O)O)[C@@H](O[C@@H]3O[C@H](COS(=O)(=O)O)[C@@H](O[C@@H]4O[C@H](C(=O)O)[C@@H](O[C@@H]5O[C@H](COS(=O)(=O)O)[C@@H](OC)[C@H](OC)[C@H]5OS(=O)(=O)O)[C@H](OC)[C@H]4OC)[C@H](OS(=O)(=O)O)[C@H]3OS(=O)(=O)O)[C@H](OCCCc3ccccc3)[C@H]2OS(=O)(=O)O)[C@H](OS(=O)(=O)O)[C@H]1OS(=O)(=O)O | 434
CO[C@H]1O[C@H](COS(=O)(=O)O)[C@@H](O[C@@H]2O[C@@H](C(=O)O)[C@@H](O[C@@H]3O[C@H](COS(=O)(=O)O)[C@@H](O[C@@H]4O[C@H](C(=O)O)[C@@H](O[C@@H]5O[C@H](COS(=O)(=O)O)[C@@H](O)[C@H](O)[C@H]5NS(=O)(=O)O)[C@H](O)[C@H]4O)[C@H](OS(=O)(=O)O)[C@H]3NS(=O)(=O)O)[C@H](O)[C@H]2OS(=O)(=O)O)[C@H](OS(=O)(=O)O)[C@H]1NS(=O)(=O)O | 1250

More lines, now with the values ahead:

Activity [U mg-1] | SMILES
1320 | CO[C@H]1O[C@H](COS(=O)(=O)O)[C@@H](O[C@@H]2O[C@@H](C(=O)O)[C@@H](O[C@@H]3O[C@H](COS(=O)(=O)O)[C@@H](O[C@@H]4O[C@H](C(=O)O)[C@@H](O[C@@H]5O[C@H](COS(=O)(=O)O)[C@@H](OC)[C@H](OC)[C@H]5OS(=O)(=O)O)[C@H](OC)[C@H]4OC)[C@H](OS(=O)(=O)O)[C@H]3OS(=O)(=O)O)[C@H](OC)[C@H]2OS(=O)(=O)O)[C@H](OS(=O)(=O)O)[C@H]1OS(=O)(=O)O
994 | CCCCO[C@@H]1[C@@H](OS(=O)(=O)O)[C@H](O[C@H]2[C@H](OS(=O)(=O)O)[C@@H](OS(=O)(=O)O)[C@@H](OC)O[C@@H]2COS(=O)(=O)O)O[C@@H](C(=O)O)[C@H]1O[C@@H]1O[C@H](COS(=O)(=O)O)[C@@H](O[C@@H]2O[C@H](C(=O)O)[C@@H](O[C@@H]3O[C@H](COS(=O)(=O)O)[C@@H](OC)[C@H](OC)[C@H]3OS(=O)(=O)O)[C@H](OC)[C@H]2OC)[C@H](OS(=O)(=O)O)[C@H]1OS(=O)(=O)O
